These results are taken from patent US20250368647A1, “NITROGEN CONTAINING CONDENSED 2,3-DIHYDROQUINAZOLINONE COMPOUNDS AS NAV1.8 INHIBITORS” (GLAXOSMITHKLINE INTELLECTUAL PROPERTY DEVELOPMENT LIMITED, priority 2022, published 2025).

Data set [1] concerns the target human Nav1.8 (Homo sapiens (Human), UniProt Q9Y5Y9). The experiment in a line: QPatch 48 HTX voltage-clamp electrophysiology, half inactivation state (V1/2) protocol, HEK293-Nav1.8 cells. The data set is classed as cell-based. The following applies: HEK293 cells expressing human Nav1.8, human Navβ1 and human TREK1, P2 current; for IC50: read-out: Nav1.8, pIC50 (converted). In short, it runs like this: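 HEK293 cells co-expressing Navβ1 and TREK1 were voltage-clamped from −100 mV: a 20 ms step to 0 mV, 8 s inactivation at −46 mV, 20 ms at −100 mV, then a 20 ms P2 test step to 0 mV, repeated every 15 s. P2 current was normalized to vehicle and full block, corrected for run-down, and Hill-fitted (4–6 concentrations) for IC50.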

Where a name gives a salt, the structure may show the parent alone. Read-outs that look alike come from different tables or passages of the source.

Chain of human Nav1.8 (Q9Y5Y9 whole entry): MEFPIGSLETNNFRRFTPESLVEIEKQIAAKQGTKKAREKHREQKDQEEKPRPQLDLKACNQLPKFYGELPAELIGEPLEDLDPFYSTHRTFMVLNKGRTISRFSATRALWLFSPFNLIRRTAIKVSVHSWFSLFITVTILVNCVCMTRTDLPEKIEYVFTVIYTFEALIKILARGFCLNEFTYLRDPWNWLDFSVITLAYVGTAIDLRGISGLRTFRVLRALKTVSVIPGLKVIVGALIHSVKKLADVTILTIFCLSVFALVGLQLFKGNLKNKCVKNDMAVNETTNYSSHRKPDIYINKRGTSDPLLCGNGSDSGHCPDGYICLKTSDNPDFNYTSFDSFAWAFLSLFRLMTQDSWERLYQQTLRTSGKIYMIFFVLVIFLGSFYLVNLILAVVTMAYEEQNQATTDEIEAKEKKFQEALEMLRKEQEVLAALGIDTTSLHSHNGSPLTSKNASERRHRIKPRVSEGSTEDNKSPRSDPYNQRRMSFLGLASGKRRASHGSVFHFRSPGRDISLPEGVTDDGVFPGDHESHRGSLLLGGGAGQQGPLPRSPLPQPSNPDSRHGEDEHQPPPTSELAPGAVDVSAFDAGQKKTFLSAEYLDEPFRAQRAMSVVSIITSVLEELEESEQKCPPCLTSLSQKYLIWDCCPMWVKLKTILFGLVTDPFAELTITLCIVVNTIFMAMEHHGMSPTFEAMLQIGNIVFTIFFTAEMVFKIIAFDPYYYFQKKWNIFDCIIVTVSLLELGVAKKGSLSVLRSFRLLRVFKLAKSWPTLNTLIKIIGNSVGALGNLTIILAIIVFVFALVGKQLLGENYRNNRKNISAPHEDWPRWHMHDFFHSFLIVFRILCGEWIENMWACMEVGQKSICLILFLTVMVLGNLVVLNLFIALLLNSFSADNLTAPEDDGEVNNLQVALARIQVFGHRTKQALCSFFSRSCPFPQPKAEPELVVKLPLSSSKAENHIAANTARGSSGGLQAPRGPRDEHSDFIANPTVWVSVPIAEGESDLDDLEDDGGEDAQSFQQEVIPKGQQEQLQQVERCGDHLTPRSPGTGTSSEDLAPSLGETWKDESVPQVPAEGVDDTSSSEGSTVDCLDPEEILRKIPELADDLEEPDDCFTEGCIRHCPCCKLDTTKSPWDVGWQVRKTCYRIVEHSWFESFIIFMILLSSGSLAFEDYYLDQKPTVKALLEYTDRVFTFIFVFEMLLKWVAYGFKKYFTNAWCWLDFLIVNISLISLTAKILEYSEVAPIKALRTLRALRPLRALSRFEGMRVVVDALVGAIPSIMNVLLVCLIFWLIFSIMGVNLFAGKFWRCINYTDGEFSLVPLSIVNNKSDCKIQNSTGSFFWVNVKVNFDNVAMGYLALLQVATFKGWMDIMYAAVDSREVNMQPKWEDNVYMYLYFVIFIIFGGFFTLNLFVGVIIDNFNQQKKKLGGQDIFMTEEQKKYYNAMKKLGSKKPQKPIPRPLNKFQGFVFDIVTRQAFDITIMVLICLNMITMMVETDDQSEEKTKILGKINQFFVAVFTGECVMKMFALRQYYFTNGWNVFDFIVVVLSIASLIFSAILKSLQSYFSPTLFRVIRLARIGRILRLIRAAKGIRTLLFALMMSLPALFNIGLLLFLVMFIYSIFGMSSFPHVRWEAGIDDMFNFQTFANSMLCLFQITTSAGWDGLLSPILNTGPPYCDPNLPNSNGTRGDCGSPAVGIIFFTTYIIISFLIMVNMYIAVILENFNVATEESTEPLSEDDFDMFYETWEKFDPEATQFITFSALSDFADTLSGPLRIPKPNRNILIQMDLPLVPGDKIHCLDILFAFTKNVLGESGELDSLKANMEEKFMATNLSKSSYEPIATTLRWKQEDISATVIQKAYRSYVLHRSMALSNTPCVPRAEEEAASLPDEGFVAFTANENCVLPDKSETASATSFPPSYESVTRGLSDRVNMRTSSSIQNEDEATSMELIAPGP
Chain of human Nav1.8 (Q07699 19-218 partner): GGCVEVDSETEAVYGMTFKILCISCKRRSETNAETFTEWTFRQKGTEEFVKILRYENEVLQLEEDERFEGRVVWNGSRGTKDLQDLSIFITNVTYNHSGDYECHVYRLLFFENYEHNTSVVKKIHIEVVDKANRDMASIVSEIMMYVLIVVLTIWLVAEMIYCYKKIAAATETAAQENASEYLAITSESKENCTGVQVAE

Consider `COc1ccc2c(n1)N(C(=O)OC(C)(C)C)CCCc1c(ccc(F)c1F)Nc1cc(C(F)(F)F)c(F)cc1C(=O)N2`, for which the ring closure, isolated yield (from COc1ccc(N)c(N(CCCc2c(Nc3cc(C(F)(F)F)c(F)cc3C(=O)O)ccc(F)c2F)C(=O)OC(C)(C)C)n1, amide bond, 13-membered ring, PyOxim/DIEA, DMF, 129.0 mM, 24.0 h) came to 72%. Regarding `COc1ccc2c(n1)C=CCCc1cc(F)ccc1N1CN2C(=O)c2cc(C(F)(F)F)ncc21`, the ring closure, isolated yield (from C=CCCc1cc(F)ccc1N1CN(c2ccc(OC)nc2/C=C\C)C(=O)c2cc(C(F)(F)F)ncc21, rcm bond, 11-membered ring, Hoveyda-Grubbs II, DCE, 80.0 °C, 18.5 h) was found to be 3%. Regarding `COc1ccc2c(n1)CC=CCc1cc(F)ccc1N1CN2C(=O)c2ccc(C(F)(F)F)cc21`, the ring closure, isolated yield (from C=CCc1cc(F)ccc1N1CN(c2ccc(OC)nc2CC=C)C(=O)c2ccc(C(F)(F)F)cc21, rcm bond, 11-membered ring, Hoveyda-Grubbs II (20 mol%), DCE, 8.6 mM, 80.0 °C, 16.0 h) is 52%. The compound `COc1ccc2c(n1)CC=CCc1cc(F)ccc1N1CN2C(=O)c2cc(C(F)(F)F)ccc21` showed a ring closure, isolated yield (from C=CCc1cc(F)ccc1N1CN(c2ccc(OC)nc2CC=C)C(=O)c2cc(C(F)(F)F)ccc21, rcm bond, 11-membered ring, Hoveyda-Grubbs II (20 mol%), DCE, 8.6 mM, 80.0 °C, 16.0 h) of 68%. As for `COc1ccc2c(n1)CCC=CCc1cc(F)ccc1N1CN2C(=O)c2cc(Cl)cnc21`, the ring closure, isolated yield (from C=CCCc1nc(OC)ccc1N1CN(c2ccc(F)cc2CC=C)c2ncc(Cl)cc2C1=O, rcm bond, 12-membered ring, Hoveyda-Grubbs II, DCE, 80.0 °C, 1.0 h) worked out at 51%. For the compound `O=C1c2cc(C(F)(F)F)ncc2N2CN1c1ccc(=O)[nH]c1CCCCc1cc(F)ccc12` [Example 40, 8-Fluoro-2-(trifluoromethyl)-10,11,12,13-tetrahydro-19H-5,18-methanobenzo[l]dipyrido[3,4-b:3′,2′-f][1,5]diazocyclotridecine-15,19(14H)-dione], in data set [1], the “Nav1.8, pIC50” value worked out at 6.0. For `C[C@H]1NCCCc2[nH]c(=O)ccc2N2CN(c3cc(C(F)(F)F)c(F)cc3C2=O)c2ccc(F)cc21` [Example 136, (4R)-2^6,3^4-Difluoro-4-methyl-2^7-(trifluoromethyl)-1^1,1^2,2^1,2^2,2^3,2^4-hexahydro-5-aza-2(3,1)-quinazolina-1(5,6)-pyridina-3(1,2)-benzenacyclooctaphane-1^2,2^4-dione], in data set [1], the “Nav1.8, pIC50” value is 6.9. On the same count and under the same terms, the figure for `O=C1c2cc(C(F)(F)F)ccc2N2CN1c1ccc(=O)[nH]c1CCCCNc1cc(F)ccc12` [Example 25, 3^4-Fluoro-2^6-(trifluoromethyl)-1^1,1^2,2^1,2^2,2^3,2^4-hexahydro-4-aza-2(3,1)-quinazolina-1(5,6)-pyridina-3(1,2)-benzenacyclooctaphan-1^2,2^4-dione] is 6.2; for `Cl.O=C1c2cc(F)c(Cl)cc2N2CN1c1ccc(=O)[nH]c1CCNCc1cc(F)ccc12` [Example 46, 3-Chloro-2,8-difluoro-10,11,12,13-tetrahydro-19H-5,18-methanodibenzo[c,f]pyrido[3,2-j][1,5,9]triazacyclotridecine-15,19(14H)-dione, hydrochloride] it is 8; for `CCC1NCCc2[nH]c(=O)ccc2N2CN(c3cc(C(F)(F)F)c(F)cc3C2=O)c2ccc(F)cc21.Cl` (centres unmarked) [Example 126, 10-Ethyl-2,8-difluoro-3-(trifluoromethyl)-10,11,12,13-tetrahydro-19H-5,18-methanodibenzo[c,f]pyrido[3,2-j][1,5,9]triazacyclotridecine-15,19(14H)-dione hydrochloride] it is 7. With `Cl.O=C1c2cc(Cl)c(C(F)(F)F)cc2N2CN1c1ccc(=O)[nH]c1CCNCc1cc(F)ccc12` [Example 59, 2-Chloro-8-fluoro-3-(trifluoromethyl)-10,11,12,13-tetrahydro-19H-5,18-methanodibenzo[c,f]pyrido[3,2-j][1,5,9]triazacyclotridecine-15,19(14H)-dione hydrochloride], the “Nav1.8, pIC50” value in data set [1] was 7.8. Regarding `Cl.O=C1c2cc(F)c(C(F)(F)F)cc2N2CN1c1ccc(=O)[nH]c1CCNCc1c2ccc(F)c1O` [Example 85, 2,8-Difluoro-9-hydroxy-3-(trifluoromethyl)-10,11,12,13-tetrahydro-19H-5,18-methanodibenzo[c,f]pyrido[3,2-i][1,5,9]triazacyclotridecine-15,19(14H)-dione hydrochloride], the “Nav1.8, pIC50” value in data set [1] stood at 6.4. On to `O=C1c2cc(C(F)(F)F)ccc2N2CN1c1ccc(=O)[nH]c1C/C=C\Cc1cc(F)ccc12` [Example 3, 8-Fluoro-2-(trifluoromethyl)-10,13-dihydro-19H-5,18-methanodibenzo[b,l]pyrido[3,2-f][1,5]diazacyclotridecine-15,19(14H)-dione], for which the “Nav1.8, pIC50” value in data set [1] was found to be 6.4. On to `CC1NCCc2[nH]c(=O)ccc2N2CN(c3cc(C(F)(F)F)c(F)cc3C2=O)c2ccc(F)cc21` (racemic) [Example 117, 2,8-Difluoro-10-methyl-3-(trifluoromethyl)-10,11,12,13-tetrahydro-19H-5,18-methanodibenzo-[c,f]pyrido[3,2-j][1,5,9]triazacyclotridecine-15,19(14H)-dione hydrochloride], for which the “Nav1.8, pIC50” value in data set [1] was found to be 7.3. For `O=C1c2cnc(C(F)(F)F)cc2N2CN1c1ccc(=O)[nH]c1CCCCCc1cc(F)ccc12` [Example 9, 3^4-Fluoro-2^7-(trifluoromethyl)-1^1,1^2,2^1,2^2,2^3,2^4-hexahydro-2(3,1)-pyrido[4,3-d]pyrimidina-1(5,6)-pyridina-3(1,2)-benzenacyclooctaphane-1^2,2^4-dione], the “Nav1.8, pIC50” value in data set [1] was determined as 7.3. As to `CC[C@H]1NCCc2[nH]c(=O)ccc2N2CN(c3cc(C(F)(F)F)c(F)cc3C2=O)c2ccc(F)cc21` [Example 127, (10R)-10-ethyl-2,8-difluoro-3-(trifluoromethyl)-10,11,12,13-tetrahydro-19H-5,18-methanodibenzo[c,f]pyrido[3,2-j][1,5,9]triazacyclotridecine-15,19(14H)-dione], the IC50 in data set [1] is 63.1 nM. As for `Cl.N#Cc1cc2c(cc1F)C(=O)N1CN2c2ccc(F)c(Cl)c2CNCCCc2[nH]c(=O)ccc21` [Example 110, 3^3-Chloro-2^6,3^4-difluoro-1^2,2^4-dioxo-1^1,1^2,2^1,2^2,2^3 2^4-hexahydro-5-aza-2(3,1)-quinazolina-1(5,6)-pyridina-3(1,2)-benzenacyclooctaphane-2^7-carbonitrile hydrochloride], in data set [1], the “Nav1.8, pIC50” value turned out to be 6.8. Still for that read-out and setting: the figure for `O=C1c2cc(C(F)(F)F)ccc2N2CN1c1ccc(=O)[nH]c1CCCOc1cc(F)ccc12` [Example 16, 8-Fluoro-2-(trifluoromethyl)-12,13-dihydro-11H,19H-5,18-methanodibenzo[b,e]pyrido[3,2-i][1]oxa[4,8]diazacyclotridecine-15,19(14H)-dione] is 6.0. On to `C[C@@H]1NCCc2[nH]c(=O)ccc2N2CN(c3cc(C(F)(F)F)c(F)cc3C2=O)c2ccc(F)cc21` [Example 119, (10S)-2,8-Difluoro-10-methyl-3-(trifluoromethyl)-10,11,12,13-tetrahydro-19H-5,18-methanodibenzo[c,f]pyrido[3,2-j][1,5,9]triazacyclotridecine-11(10H)-dione], for which, in data set [1], the IC50 was 631 nM. Regarding `O=C1c2cc(C(F)(F)F)ccc2N2CN1c1ccc(=O)[nH]c1NCCCc1cc(F)ccc12` [Example 27, 8-Fluoro-2-(trifluoromethyl)-10,11,12,13-tetrahydro-19H-5,18-methanodibenzo[f,i]pyrido[2,3-b][1,4,8]triazocyclotridecine-15,19(14H)-dione], in data set [1], the “Nav1.8, pIC50” value is reported as 7.8. Consider `Cl.O=C1c2cc(F)c(C(F)(F)F)cc2N2CN1c1ccc(=O)[nH]c1CCNCc1c2ccc(F)c1F` [Example 48, 2,8,9-Trifluoro-3-(trifluoromethyl)-10,11,12,13-tetrahydro-19H-5,18-methanodibenzo[c,f]pyrido[3,2-j][1,5,9]triazacyclotridecine-15,19(14H)-dione hydrochloride], for which the “Nav1.8, pIC50” value in data set [1] worked out at 8.1. Turning to `Cl.O=C1c2cc(F)c(F)cc2N2CN1c1ccc(=O)[nH]c1CCNCc1cc(F)ccc12` [Example 53, 2,3,8-Trifluoro-10,11,12,13-tetrahydro-19H-5,18-methanodibenzo[c,f]pyrido[3,2-j][1,5,9]triazacyclotridecine-15,19(14H)-dione hydrochloride], the “Nav1.8, pIC50” value in data set [1] is given as 6.7. `CN1CCCCc2cc(F)ccc2N2CN(C(=O)c3ccc(C(F)(F)F)cc32)c2cc(I)c(=O)[nH]c21` [Example 14, 3^4-Fluoro-1^3-iodo-8-methyl-2^7-(trifluoromethyl)-1^1, 1^2,2^1,2^2,2^3,2^4-hexahydro-8-aza-2(3,1)-quinazolina-1(5,6)-pyridina-3(1,2)-benzenacyclooctaphan-1^2,2^4-dione]: in data set [1], the “Nav1.8, pIC50” value was determined as 6.9.

For `CC1Cc2[nH]c(=O)ccc2N2CN(c3ccc(F)cc3CN1)c1cc(C(F)(F)F)c(F)cc1C2=O` (racemic) [Example 123, 2,8-Difluoro-12-methyl-3-(trifluoromethyl)-10,11,12,13-tetrahydro-19H-5,18-methanodibenzo-[c,f]pyrido[3,2-j][1,5,9]triazacyclotridecine-15,19(14H)-dione hydrochloride], the “Nav1.8, pIC50” value in data set [1] was found to be 6.1. For the compound `O=C1c2cc(C(F)(F)F)cnc2N2CN1c1ccc(=O)[nH]c1CCCCc1cc(OC(F)(F)F)ccc12` [Example 17, 8-(Trifluoromethoxy)-2-(trifluoromethyl)-10,11,12,13-tetahydro-19H,19H-5,18-methano-dibenzo[l]pyrido[2,3-b:3′,2′-f][1,5]diazacyclotridecine-15,19(14H)-dione], the “Nav1.8, pIC50” value in data set [1] is given as 6.1. Same read-out and setting: the figure for `Cl.O=C1c2cc(F)c(C(F)(F)F)cc2N2CN1c1ccc(=O)[nH]c1CCNCc1c(F)cccc12` [Example 80, 2,9-Difluoro-3-(trifluoromethyl)-10,11,12,13-tetrahydro-19H-5,18-methanodibenzo-[c,f]pyrido[3,2-j][1,5,9]triazacyclotridecine-15,19(14H)-dione hydrochloride] is 7.7.
